Measured values taken from article PMC8234620, “An Integrated Peptidomics and In Silico Approach to Identify Novel Anti-Diabetic Peptides in Parmigiano-Reggiano Cheese” (Biology, 2021).
Ends that are not written are not given here. Peptide text beside a SMILES is read from it.

Legend:
DPP-IV = settings: cited from earlier work; for Bioactivity: DPP-IV-inhibition: ref BIOPEP database and Milk Bioactive Peptides Database; for IC50: ref [41],[51],[52], read-out: IC50 DPP-IV, previously reported
rat intestinal DPP-IV = target: T1, rat intestinal DPP-IV (Rattus norvegicus, UniProt P14740); assay: Dipeptidyl peptidase IV (DPP-IV) assay; assay type: biochemical; settings: synthetic peptides
T1 construct: 10 μL of rat intestinal DPP-IV (0.1 U/mL in the assay); from tissue; host or cells: rat intestine
T1 sequence (P14740 whole entry): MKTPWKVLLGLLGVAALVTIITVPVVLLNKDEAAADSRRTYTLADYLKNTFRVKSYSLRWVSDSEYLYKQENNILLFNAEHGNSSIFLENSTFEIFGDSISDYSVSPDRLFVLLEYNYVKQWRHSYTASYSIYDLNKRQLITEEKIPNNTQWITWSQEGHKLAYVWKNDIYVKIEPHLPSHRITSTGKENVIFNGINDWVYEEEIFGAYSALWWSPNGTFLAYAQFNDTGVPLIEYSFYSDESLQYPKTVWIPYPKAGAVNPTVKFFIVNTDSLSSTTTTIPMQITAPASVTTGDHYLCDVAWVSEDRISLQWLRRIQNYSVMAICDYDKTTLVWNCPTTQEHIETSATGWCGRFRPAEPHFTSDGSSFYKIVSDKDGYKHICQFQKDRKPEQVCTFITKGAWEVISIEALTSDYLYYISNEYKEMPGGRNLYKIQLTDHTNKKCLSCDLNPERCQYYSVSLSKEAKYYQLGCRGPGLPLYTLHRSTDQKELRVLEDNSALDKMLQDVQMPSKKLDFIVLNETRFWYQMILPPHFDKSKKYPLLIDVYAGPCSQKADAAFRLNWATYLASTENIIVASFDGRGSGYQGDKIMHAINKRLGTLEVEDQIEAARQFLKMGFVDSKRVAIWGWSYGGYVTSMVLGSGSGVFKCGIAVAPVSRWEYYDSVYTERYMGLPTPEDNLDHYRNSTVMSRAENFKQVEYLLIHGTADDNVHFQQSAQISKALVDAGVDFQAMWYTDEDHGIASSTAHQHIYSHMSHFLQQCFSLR
Description: DPP-IV assay was performed as described in Tagliazucchi et al.. Briefly, in a 96-well plate, 10 μL of rat intestinal DPP-IV (0.1 U/mL in the assay) were mixed with 145 μL of Tris-HCl buffer (pH 7.0; 0.1 mol/L) and 40 μL of different concentrations of water-soluble low-molecular weight peptide extracts. After 20 min of incubation at 37 °C, the reaction was started by the addition of 5 μL of glycine-proline-p-nitroanilide (6.4 mmol/L). The amount of released p-nitroanilide was determined after 20 min of incubation at 37 °C by reading at 405 nm in a microplate reader. Results were expressed as IC50 as reported above.
(§1) Selected peptides were then synthesized (Bio-Fab Research, Rome, Italy) and tested for their inhibitory activity against DPP-IV, α-glucosidase, and α-amylase. The assays were carried out as reported in Section 2.3. The results were expressed as IC50 values.

yeast α-glucosidase = yeast α-glucosidase (Saccharomyces cerevisiae, UniProt P53341); assay: α-Glucosidase assay; assay type: biochemical; settings: for inhibition at 1000 µM: read-out: percentage of inhibition of α-glucosidase; for IC50: synthetic peptides, n.a. = not active
yeast α-glucosidase, sequence (P53341 whole entry): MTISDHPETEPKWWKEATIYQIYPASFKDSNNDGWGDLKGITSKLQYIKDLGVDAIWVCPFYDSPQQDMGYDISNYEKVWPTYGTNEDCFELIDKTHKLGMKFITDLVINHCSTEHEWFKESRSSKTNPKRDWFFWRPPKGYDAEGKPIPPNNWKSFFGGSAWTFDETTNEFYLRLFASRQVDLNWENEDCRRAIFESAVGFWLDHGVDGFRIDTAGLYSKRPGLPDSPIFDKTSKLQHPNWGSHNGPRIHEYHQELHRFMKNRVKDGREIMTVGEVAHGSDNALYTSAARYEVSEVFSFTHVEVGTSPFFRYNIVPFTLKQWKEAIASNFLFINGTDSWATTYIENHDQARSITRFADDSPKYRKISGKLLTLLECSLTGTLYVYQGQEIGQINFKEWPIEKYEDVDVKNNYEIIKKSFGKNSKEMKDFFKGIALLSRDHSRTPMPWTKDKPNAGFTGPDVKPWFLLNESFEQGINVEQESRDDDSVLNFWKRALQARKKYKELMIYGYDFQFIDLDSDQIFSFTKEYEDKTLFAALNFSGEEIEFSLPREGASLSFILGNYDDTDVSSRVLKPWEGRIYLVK
Description: α-Glucosidase assay was performed as reported in Bellesia et al., adapted to a microplate reader. The reaction was performed by mixing 66.7 μL of potassium phosphate buffer (67 mmol/L, pH 6.8), 3.3 μL of glutathione 3 mmol/L, 20 μL of different concentrations of water-soluble low-molecular weight peptide extracts, and 5 μL of yeast α-glucosidase 0.2 U/mL. After 20 min of incubation at 37 °C, the reaction was started by the addition of 5 μL of p-nitrophenyl-glucose 5 mmol/L. After a further 20 min of incubation at 37 °C, the reaction was stopped by the addition of 150 μL of Na2CO3 100 mmol/L. The amount of released p-nitrophenol was determined by reading at 405 nm with a microplate reader. Results were expressed as IC50 as reported above.
as §1

[1] = set-up: method as in BIOPEP database and Milk Bioactive Peptides Database; settings: ref BIOPEP database and Milk Bioactive Peptides Database; cited from earlier work
[2] = system: angiotensin converting enzyme; settings: cited from earlier work; for Bioactivity: ACE-inhibition: ref BIOPEP database and Milk Bioactive Peptides Database; for IC50 values against ACE: ref [47],[48],[49]
[3] = set-up: method as in BIOPEP database and Milk Bioactive Peptides Database; settings: ref BIOPEP database and Milk Bioactive Peptides Database; cited from earlier work; remark: listed apart in the source
[4] = set-up: method as in BIOPEP database and Milk Bioactive Peptides Database; settings: ref BIOPEP database and Milk Bioactive Peptides Database; cited from earlier work; remark: listed apart in the source
α-glucosidase = settings: cited from earlier work
[5] = set-up: method as in BIOPEP database and Milk Bioactive Peptides Database; settings: ref BIOPEP database and Milk Bioactive Peptides Database; cited from earlier work; remark: listed apart in the source
[6] = set-up: method as in PMID 16899668, doi:10.1016/j.foodres.2015.12.007; settings: spontaneously hypertensive rats; ref [48],[49]; cited from earlier work

IPPL (UniProt P02666 89-92, looked up, fragment) [β-casein f(74–77)]
Bioactivity: DPP-IV-inhibition (DPP-IV): DPP-IV-inhibition
IC50 (DPP-IV): 429 µM

APFPE [APFPE]
IC50 (rat intestinal DPP-IV): 49.5 ± 0.5 µM

O=C(O)[C@H](Cc1ccccc1)NC(=O)[C@@H]1CCCN1C(=O)[C@@H]1CCCN1 [PPF] (H-Pro-Pro-Phe-OH)
inhibition at 1000 µM (yeast α-glucosidase): 8.8 ± 1.3%
IC50 (yeast α-glucosidase): > 1 mM
IC50 (rat intestinal DPP-IV): 142 ± 1.7 µM

VVPPF [VVPPF]
inhibition at 1000 µM (yeast α-glucosidase): 22 ± 1.3%
IC50 (yeast α-glucosidase): > 1 mM
IC50 (rat intestinal DPP-IV): 699 ± 11.1 µM

PGPIPN (UniProt P02666 78-83, looked up, fragment) [β-casein f(63–68)]
Bioactivity: Anti-inflammatory [1]: Anti-inflammatory
Bioactivity: ACE-inhibition [2]: ACE-inhibition
Bioactivity: Immunomodulation [3]: Immunomodulation

FFVAP (UniProt P02662 38-42, looked up, fragment) [αS1-casein f(23–27)]
Bioactivity: ACE-inhibition [2]: ACE-inhibition

PFPE (UniProt P02662 42-45, looked up, fragment) [αS1-casein f(27–30)]
Bioactivity: ACE-inhibition [2]: ACE-inhibition

YQGPIVLNPWDQVKR [αS2-casein f(100–114)]
Bioactivity: Anti-microbial [4]: Anti-microbial
Bioactivity: ACE-inhibition [2]: ACE-inhibition
Bioactivity: Immunomodulation [3]: Immunomodulation

PFP (UniProt P02666 76-78, looked up, fragment) [β-casein f(61–63)]
Bioactivity: α-glucosidase inhibition (α-glucosidase; ref BIOPEP database and Milk Bioactive Peptides Database): α-glucosidase inhibition
IC50 (α-glucosidase; ref [53], read-out: IC50 α-glucosidase, previously reported): 8.6 mM
Bioactivity: ACE-inhibition [2]: ACE-inhibition

YLGY (UniProt P02662 106-109, looked up, fragment) [αS1-casein f(91–94)]
Bioactivity: ACE-inhibition [2]: ACE-inhibition
Bioactivity: Antioxidant [5]: Antioxidant

LVYPFP (UniProt P02666 73-78, looked up, fragment) [β-casein f(58–63)]
Bioactivity: ACE-inhibition [2]: ACE-inhibition

LVYPFPGP [β-casein f(58–65)]
Bioactivity: ACE-inhibition [2]: ACE-inhibition

LLY (UniProt P02666 206-208, looked up, fragment) [β-casein f(191–193)]
Bioactivity: Anti-inflammatory [1]: Anti-inflammatory
Bioactivity: Immunomodulation [3]: Immunomodulation
Bioactivity: Antioxidant [5]: Antioxidant

LPLP (UniProt P02666 150-153, looked up, fragment) [β-casein f(135–138)]
effect on systolic blood pressure [6]: powerful decreasing agents of systolic blood pressure
Bioactivity: ACE-inhibition [2]: ACE-inhibition
IC50 values against ACE [2]: low

VLP
Bioactivity: ACE-inhibition [2]: ACE-inhibition

YQEP (UniProt P02666 208-211, looked up, fragment) [β-casein f(193–196)]
Bioactivity: ACE-inhibition [2]: ACE-inhibition

TVY (UniProt P02663 197-199, looked up, fragment) [αS2-casein f(182–184)]
Bioactivity: ACE-inhibition [2]: ACE-inhibition

YLEQLLR [αS1-casein f(94–100)]
Bioactivity: Anti-microbial [4]: Anti-microbial

FGK (UniProt P02662 47-49, looked up, fragment) [αS1-casein f(32–34)]
Bioactivity: ACE-inhibition [2]: ACE-inhibition

YQL (UniProt P02662 169-171, looked up, fragment) [αS1-casein f(154–156)]
Bioactivity: Antioxidant [5]: Antioxidant

FVAP (UniProt P02662 39-42, looked up, fragment) [αS1-casein f(24–27)]
Bioactivity: ACE-inhibition [2]: ACE-inhibition

QEPV (UniProt P02666 209-212, looked up, fragment) [β-casein f(194–197)]
Bioactivity: Immunomodulation [3]: Immunomodulation

DVPSERYLG [αS1-casein f(85–93)]
Bioactivity: ACE-inhibition [2]: ACE-inhibition

TEDELQDKIHPF [β-casein f(41–52)]
Bioactivity: Anti-microbial [4]: Anti-microbial

EMPFPK (UniProt P02666 123-128, looked up, fragment) [β-casein f(108–113)]
Bioactivity: Anti-microbial [4]: Anti-microbial
Bioactivity: ACE-inhibition [2]: ACE-inhibition

LEE (UniProt P02666 18-20, looked up, fragment) [β-casein f(3–5)]
Bioactivity: ACE-inhibition [2]: ACE-inhibition

WIQP (UniProt P02663 208-211, looked up, fragment) [αS2-casein f(193–196)]
Bioactivity: ACE-inhibition [2]: ACE-inhibition
Bioactivity: DPP-IV-inhibition (DPP-IV): DPP-IV-inhibition
IC50 (DPP-IV): 237 µM

DKIHPF (UniProt P02666 62-67, looked up, fragment) [β-casein f(47–52)]
Bioactivity: ACE-inhibition [2]: ACE-inhibition

PEL (UniProt P02662 162-164, looked up, fragment) [αS1-casein f(147–149)]
Bioactivity: Antioxidant [5]: Antioxidant

YLG (UniProt P02662 106-108, looked up, fragment) [αS1-casein f(91–93)]
Bioactivity: Antioxidant [5]: Antioxidant

GTQY (UniProt P02662 185-187, looked up, fragment) [αS1-casein f(170–172)]
Bioactivity: ACE-inhibition [2]: ACE-inhibition
Bioactivity: Antioxidant [5]: Antioxidant

VVPP (UniProt P02666 98-101, looked up, fragment) [β-casein f(83–86)]
Bioactivity: ACE-inhibition [2]: ACE-inhibition

LPQ
Bioactivity: DPP-IV-inhibition (DPP-IV): DPP-IV-inhibition
IC50 (DPP-IV): 82 µM

LHLPLP (UniProt P02666 148-153, looked up, fragment) [β-casein f(133–138)]
effect on systolic blood pressure [6]: powerful decreasing agents of systolic blood pressure
Bioactivity: ACE-inhibition [2]: ACE-inhibition
IC50 values against ACE [2]: low

PLW (UniProt P02662 212-214, looked up, fragment) [αS1-casein f(197–199)]
Bioactivity: ACE-inhibition [2]: ACE-inhibition

CC(C)C[C@H](N)C(=O)N1CCC[C@H]1C(=O)N1CCC[C@H]1C(=O)N[C@H](C(=O)O)[C@@H](C)O [LPPT] (H-LPPT-OH)
IC50 (rat intestinal DPP-IV): 495.3 ± 3.6 µM

PGPIP (UniProt P02666 78-82, looked up, fragment) [β-casein f(63–67)]
Bioactivity: ACE-inhibition [2]: ACE-inhibition

VVVPPF [VVVPPF]
inhibition at 1000 µM (yeast α-glucosidase): 22.5 ± 1%
IC50 (yeast α-glucosidase): > 1 mM
IC50 (rat intestinal DPP-IV): 610 ± 13.6 µM

DKIHP (UniProt P02666 62-66, looked up, fragment) [β-casein f(47–51)]
Bioactivity: ACE-inhibition [2]: ACE-inhibition

LNF (UniProt P02663 176-178, looked up, fragment) [αS2-casein f(161–163)]
Bioactivity: ACE-inhibition [2]: ACE-inhibition

QGPIVLNPWDQVKR [αS2-casein f(101–114)]
Bioactivity: Antioxidant [5]: Antioxidant

SLPQ (UniProt P02666 84-87, looked up, fragment) [β-casein f(69–72)]
Bioactivity: ACE-inhibition [2]: ACE-inhibition

IVP (UniProt P02662 86-88, looked up, fragment) [αS1-casein f(71–73)]
Bioactivity: ACE-inhibition [2]: ACE-inhibition

RELEEL (UniProt P02666 16-21, looked up, fragment) [β-casein f(1–6)]
Bioactivity: Antioxidant [5]: Antioxidant

VEP (UniProt P02666 131-133, looked up, fragment) [β-casein f(116–118)]
Bioactivity: ACE-inhibition [2]: ACE-inhibition

YQEPVLGPVRGPFPIIV [β-casein f(193–209)]
Bioactivity: Anti-microbial [4]: Anti-microbial
Bioactivity: ACE-inhibition [2]: ACE-inhibition

TKVIPYVRYL [αS2-casein f(198–207)]
Bioactivity: Anti-microbial [4]: Anti-microbial

ENLLRF (UniProt P02662 33-38, looked up, fragment) [αS1-casein f(18–23)]
Bioactivity: ACE-inhibition [2]: ACE-inhibition

IPPLTQTPV [β-casein f(74–82)]
Bioactivity: DPP-IV-inhibition (DPP-IV): DPP-IV-inhibition
IC50 (DPP-IV): 465 µM

QGP (UniProt P02663 116-118, looked up, fragment) [αS2-casein f(101–103)]
Bioactivity: ACE-inhibition [2]: ACE-inhibition
